Test results from patent publication US12318365B2, “Inhibition of dipeptide repeat proteins” (ALS Therapy Development Institute, priority 2019, dated 2025).
Entries after “also recorded” stand apart in the source; their conditions may differ. Like-named read-outs stand apart in the source and are kept apart here. No end group written: not given here.

Tested on: NSC-34 cells
Assay: LDH assay (cytotoxicity) in NSC-34 cells
Type: cell-based
Conditions: for DRP-induced toxicity: incubated 24 hours; for toxicity: DRP concentrations as low as 300 nM
Description: LDH Assay: The LDH assay is a colorimetric assay that measures cell toxicity and death. […] When cells lose membrane integrity, an enzyme found in living cells called lactate dehydrogenase (LDH) is released into the solution surrounding the dying cell. A form of programmed cell death, apoptosis, as well as other forms of cell death also ultimately lead to a cell's membrane being destroyed, resulting in a large release of LDH into the extracellular space. Thus, LDH is an excellent marker not only for necrosis, but for all instances of cell death. In an LDH assay, a sample of the solution surrounding the cell is isolated, and transferred to a plate containing an LDH reaction mixture. This reaction mixture contains a tetrazolium salt intermediate and other reaction constituents that, when exposed to LDH, convert the tetrazolium salt into a colored Formazan product. This Formazan product can be quantified spectrophotometrically. Greater absorbance readings correspond to more cell death.
One row on the top and bottom of the plate, and two columns on either side of the plate, were left without cells and contained culture medium only to minimize experimental well volume evaporation. After plating, cells were incubated for 24 h at 37° C., 5% CO2 prior to DRP and/or PRMT inhibitor addition. At time of DRP/PRMT inhibitor addition, desired doses of DRP for challenge and inhibitor for treatment were achieved by diluting aliquots of each stock in warm culture medium. During experiments where both PRMT inhibitors and DRPs were used, PRMT inhibitors were always applied to wells first, and followed by DRP application. […] Inhibitor toxicity controls were included as wells treated with the desired doses of drug for the experiment, but no DRP. DRP toxicity controls were included as wells only treated with the doses of DRP used for challenge. Once dosed, plates were incubated for 24 h at 37° C., 5% CO2 prior to running the WST-1 or LDH assay endpoints. Additional controls needed for each endpoint are specified in the “WST-1 Assay” and “LDH Assay” sections of these methods.
LDH Assay: Cells were plated and prepared using the steps described in the “Plating NSC-34 and Dosing with DRPs and PRMT Inhibitors” section of these methods. Other controls for this experiment included several sets of wells with only cells in culture medium (one triplicate designated for “untreated,” one triplicate designated for “lysed” positive control), and wells with culture medium only. An additional control added only to the transfer plate at time of testing was 5 μL LDH only. Testing was performed using colorimetric LDH-Cytotoxicity Assay Kit II (Abcam, Cambridge, MA, USA) per manufacturer's instructions. Final read at 450 nm was performed on a SpectraMax M3 Microplate Reader (Molecular Devices, San Jose, CA, USA). Data analysis included calculation of % LDH release using the following equation: […]
Experiments included three replicates per condition. Each experiment was repeated twice (executed three times total).
(§1) The following conditions were plated in triplicate.
Plates were incubated for 24 h at 37° C., 5% CO2. Cells were tested and data were analyzed by LDH assay.
Cells were plated in culture medium in 2 96-well plates at a density of 3.7×10^4 cells per well, and incubated overnight at 37° C., 5% CO2.
as §1
Cells were plated in culture medium in 2 96-well plates at a density of 3.7×10^4 cells per well, and incubated overnight at 37° C., 5% CO2. […]
The following conditions were plated in triplicate. […]

Compound	effect on GR15-induced cytotoxicity (300 nM GR15, 24 h, MS023 60 and 30 μM)	abrogation of PR-induced cytotoxicity (300 nM PR15, 24 h, all doses applied (1-60 μM))	abrogation of ADMe-GR15-induced cytotoxicity (3 μM ADMe-GR15, 24 h, MS023 0.1-10 μM)	abrogation of GR-induced toxicity (3 μM GR15, 24 h, all tested doses (1-60 μM))	dose dependence of abrogation of GR15-induced cytotoxicity (3 μM GR15, 24 h, dose range of the example)	abrogation of GR-induced toxicity (3 μM GR15, 24 h, doses 0.01, 0.03, 0.1 and 0.3 μM)	abrogation of GR-induced toxicity (3 μM GR15, 24 h, doses 0.3, 1 and 3 μM)	abrogation of GR15-induced cytotoxicity (3 μM GR15, 24 h, doses 1 and 3 μM)	relative potency against GR- vs PR-induced toxicity (3 μM GR15 or PR15, 24 h, MS023 0.01-3 μM)	dose dependence of abrogation of PR15-induced cytotoxicity (3 μM PR15, 24 h, dose range of the example)	abrogation of PR-induced toxicity (3 μM PR15, 24 h, doses 0.01, 0.03 and 0.1 μM)	abrogation of PR-induced toxicity (3 μM PR15, 24 h, doses 0.03, 0.1, 0.3, 1 and 3 μM)	abrogation of PR-induced cytotoxicity (3 μM PR15, 24 h, doses 1 and 3 μM)	abrogation of PR-induced cytotoxicity (3 μM PR15, 24 h, doses 10, 30 and 60 μM)	cytotoxicity of inhibitor alone (no DRP, highest dose 60 μM)	cytotoxicity induced by DRP challenge (DRP 10 nM-3 μM, 24 h)	EC50 (DRP 0.01-3 μM, 24 h, read-out: EC50 of DRP-induced toxicity) [nM]	DRP-induced toxicity (DRP 0.01-3 μM)	toxicity (24 h)	EC50 (24 h) [nM]
CC(C)Oc1ccc(-c2c[nH]cc2CN(C)CCN)cc1 [MS023]	significantly amplified cytotoxicity	at least partially abrogated	did not abrogate	partially abrogated	potently, and dose-dependently abrogated; also recorded: consistently dose-dependently abrogated	partially abrogated	completely abrogated	completely abrogated	more potently abrogated PR-induced toxicity	potently, and dose-dependently abrogated	partially abrogated	completely abrogated	fully abrogated; also recorded: completely abrogated	partially abrogated	did produce significant cytotoxicity					
GRGRGRGRGRGRGRGRGRGRGRGRGRGRGR [GR15]																induced dose-dependent cytotoxicity	50 ± 26	produced significant, dose-dependent toxicity	approximately 10%	
PRPRPRPRPRPRPRPRPRPRPRPRPRPRPR [PR15]																		produced significant, dose-dependent toxicity	approximately 10%	56 ± 20
